Reference: patent US5565433A, “Sulfated β-glycolipid derivatives as cell adhesion inhibitors” (Bristol-Myers Squibb Company, priority 1996, dated 1996)

Columns and labels:
[1] = test system: Reverse Passive Arthus Reaction in Rats; assay: Reverse Passive Arthus Reaction in Rats, vascular permeability (VP); type: in vivo; settings: rat, IV, % inhibition at 3 mg single dose, 4 hours
Excerpt: (§1) 3. Reverse Passive Arthus Reaction in Rats
(§2) The reverse passive Arthus reaction in rats is a modification of the method by Mulligan et al., as described in J. Clin. Invest., (1991 ) 88:1396-1406. This is an experimental model in which the interaction of antigen-antibody complexes and complement leads to a severe vasculitis that is associated with edema, induration, erythema and hemorrhage. The interaction between the antigen-antibody complexes and complement leads to a localized influx of neutrophils. These neutrophils release a variety of mediators that are associated with tissue damage and vascular permeability. The localized inflammatory reaction is measured using different techniques i.e., vascular permeability and neutrophil influx which is evaluated both biochemically and microscopically.
(§3) Male Sprague Dawley specific pathogen-free rats with jugular vein cannulae (280-320 g, Hill Top Labs, Pa.) are used in these studies. Animals are acclimated for at least 1 day and individually housed in stainless steel cages. The dorsal region of the rats is closely clipped 2 days prior to the experiments and divided into 4 sites on each side of the midline. Prior to all injections the rats are sedated with 0.4 ml per 300 gm rat of ketamine/rompun [1000 mg (10 ml) of ketamine HCL is mixed with 40 mg (2.0 ml) Rompun] administered IP and or inhalation anesthesia with metafane (methoxyflurane).
(§4) Bovin Serum Albumin (BSA) and rabbit polyclonal IgG rich in anti-BSA are purchased from Sigma Chemical Co. (St. Louis, Mo.). Radiolabelled ^125 I-BSA (spAct 1-5 μCi/μg) is purchased from Dupont NEN (Boston, Mass.).
(§5) Each rat is administered intradermal (ID) injection of (0.4 mg, 0.6 mg and 0.8 mg) anti-BSA in a volume of 100 μl per injection in normal saline. The ID injections are randomized near the mid dorsal region on both sides of the back bone. Immediately after the ID injections of the anti-BSA, the rats are administered intravenous (IV) injections of BSA (10 mg in 1.0 ml) in normal saline containing ^125 I labeled BSA (1 μCi/ml BSA or 5.0 μCi/kg body wt) for quantification of dermal vascular injury. Anti-inflammatory agents such as inhibitors of adhesion molecules of the present invention are administered IV at a single dose of 3 mg immediately after BSA. Four (4) hours after the IV injection of BSA, the rats are anesthetized with metafane and 2 to 3 ml of blood is withdrawn via the cannula into an anticoagulant containing (EDTA or Heparin) tube and plasma separated and saved for neutrophil and albumin quantitation. The rats are killed and the skin surrounding the injection site (15 mm diameter) is punched out and weighed. The skin samples and a fixed volume of plasma (0.1 to 1.0 ml) is analyzed in a gamma-counter for ^125 I content. Skin samples from the contralateral side are processed and analyzed for myeloperoxidase activity (MPO) as a measure of neutrophil accumulation. As needed, samples are also processed for histological evaluation of the reacted sites.
Vascular Permeability (VP)
The calculation of the plasma protein exudation into skin is made by determining the radioactivity in the tissue and relating this to the level of radioactive albumin in the blood at the time of sacrifice. […] [formula]
Percent inhibition of the test compound at 3 mg was determined as follows: [formula] Myeloperoxidase (MPO)

[2] = test system: Reverse Passive Arthus Reaction in Rats; assay: Reverse Passive Arthus Reaction in Rats, myeloperoxidase (MPO); type: in vivo; settings: rat, IV, % inhibition at 3 mg single dose, 4 hours
Excerpt: as §1, §2, §3, §4, §5
MPO is located in the azurephil granules of polymorphonuclear leukocytes (PMN). Because of its abundance in these cells (5% dry weight), this enzyme is used as a marker for tissue neutrophil content. For tissue MPO content, the method of Bradley, et al., was used as described in J. Invest. […] Change in absorbance at 450 nm was measured at room temperature using a Vmax kinetic plate reader (Molecular Devices, Pale Alto, Calif., USA). Percent inhibition of the test compound at 3 mg dose was determined as follows: [formula] […]

Row | SMILES | RPA VP % Inhib. [1] [%] | RPA MPO % Inhib. [2] [%]
1 | CCCCCCCCCCCCC/C=C/[C@@H](O)[C@H](CO[C@@H]1O[C@H](COS(=O)(=O)O)[C@H](OS(=O)(=O)O)[C@H](O)[C@H]1O)NC(=O)CCCCCCCCCCCCCCC [Example 2, (2S,3R,4E)-3-Hydroxy-2-hexadecanoylamino-1-[4,6-di-O-(sodiumoxysulfonyl)-β-D-galactopyranosyloxy]-4-octadecene] | 63 | 33.5
2 | CCCCCCCC/C=C\CCCCCCCCCCCCCC(=O)N[C@@H](CO[C@@H]1O[C@H](COS(=O)(=O)O)[C@H](OC(=O)c2ccccc2)[C@H](OC(=O)c2ccccc2)[C@H]1OS(=O)(=O)O)[C@@H](/C=C/CCCCCCCCCCCCC)OC(=O)c1ccccc1 [Example 7, (2S,3R,4E)-3-Benzoyloxy-1-[3,4-di-O-benzoyl-2,6-di-O-(sodiumoxysulfonyl)-β-D-galactopyranosyloxy]-2-(cis-15-tetracosenoylamino)-4-octadecene] | 56 | 46
